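How tested: cells in 96-well plates exposed to compound for 48 hours at five concentrations. GI50 marks 50% less growth.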 Activity calls are given as the source filed them. Cut-off read from the data, not from the text of the source: active = GI50 up to about 1.1 µM and inactive = higher.
Key:
Assay in all cases: DTP human tumour cell line panel, 48 h
[1] = test system: DU-145
[2] = test system: U-251
[3] = test system: OVCAR-4
[4] = test system: MDA-MB-435
[5] = test system: SW-620
[6] = test system: SN12C
[7] = test system: RXF 393
[8] = test system: KM12
[9] = test system: CAKI-1
[10] = test system: MDA-MB-231
[11] = test system: A549
[12] = test system: BT-549
[13] = test system: UACC-62
[14] = test system: T47D
[15] = test system: HOP-62
[16] = test system: SK-OV-3
[17] = test system: SK-MEL-5
[18] = test system: Hs-578T
[19] = test system: A498
[20] = test system: COLO 205

| SMILES | GI50 [1] | GI50 [2] | GI50 [3] | GI50 [4] | GI50 [5] | GI50 [6] | GI50 [7] | GI50 [8] | GI50 [9] | GI50 [10] | GI50 [11] | GI50 [12] | GI50 [13] | GI50 [14] | GI50 [15] | GI50 [16] | GI50 [17] | GI50 [18] | GI50 [19] | GI50 [20] |
| --- | --- | --- | --- | --- | --- | --- | --- | --- | --- | --- | --- | --- | --- | --- | --- | --- | --- | --- | --- | --- |
| CC(C)(CC1(C)NC(=O)NC1=O)OCc1ccccc1 (centres undefined) | > 100 µM (inactive) | > 100 µM (inactive) | > 100 µM (inactive) | > 100 µM (inactive) | > 100 µM (inactive) | > 100 µM (inactive) | > 100 µM (inactive) | > 100 µM (inactive) | > 100 µM (inactive) | > 100 µM (inactive) | > 100 µM (inactive) | > 100 µM (inactive) | > 100 µM (inactive) | > 100 µM (inactive) | > 100 µM (inactive) | > 100 µM (inactive) | > 100 µM (inactive) | > 100 µM (inactive) | > 100 µM (inactive) |  |
| CCOC(=O)NNC(=O)NCCCCNC(=O)NNC(=O)OCC | > 100 µM (inactive) | > 100 µM (inactive) |  | > 100 µM (inactive) | > 100 µM (inactive) | > 100 µM (inactive) | > 100 µM (inactive) | 98.2 µM (inactive) | > 100 µM (inactive) | > 100 µM (inactive) | > 100 µM (inactive) | > 100 µM (inactive) | > 100 µM (inactive) | > 100 µM (inactive) | > 100 µM (inactive) | > 100 µM (inactive) | > 100 µM (inactive) | > 100 µM (inactive) | > 100 µM (inactive) | > 100 µM (inactive) |
| NC1(c2cc3ccccc3s2)CCCC1 | > 100 µM (inactive) | 48 µM (inactive) | 42.6 µM (inactive) | 41 µM (inactive) | 49.2 µM (inactive) | 57.5 µM (inactive) | 43.8 µM (inactive) | 43.9 µM (inactive) | > 100 µM (inactive) | 83.8 µM (inactive) | 90.6 µM (inactive) | > 100 µM (inactive) | 50.4 µM (inactive) | 36.3 µM (inactive) | > 100 µM (inactive) | > 100 µM (inactive) | 24.1 µM (inactive) | > 100 µM (inactive) | > 100 µM (inactive) | 22.9 µM (inactive) |
| O=C1C(Cl)C(c2cc3cc(Br)ccc3nc2Cl)N1c1c(Cl)cccc1Cl (centres undefined) | > 25 µM (inactive) |  | 5.46 µM (inactive) | 8.67 µM (inactive) | 11.6 µM (inactive) | 16.6 µM (inactive) | 9.91 µM (inactive) | > 25 µM (inactive) | 8.65 µM (inactive) | 19.3 µM (inactive) | > 25 µM (inactive) | 10.2 µM (inactive) | 17.4 µM (inactive) | 11.6 µM (inactive) | > 25 µM (inactive) | > 25 µM (inactive) | 12.5 µM (inactive) | > 25 µM (inactive) | > 25 µM (inactive) | > 25 µM (inactive) |
| Nc1nc(Cl)c2ncn(Cc3ccc(CCl)cc3)c2n1 | 6.59 µM (inactive) | 3.56 µM (inactive) | 15.6 µM (inactive) | 16.6 µM (inactive) | 3.37 µM (inactive) | 12.2 µM (inactive) | 1.3 µM (inactive) | 8.07 µM (inactive) | 2.49 µM (inactive) | 13.1 µM (inactive) | 15.7 µM (inactive) | 6.84 µM (inactive) | 2.23 µM (inactive) | 6.98 µM (inactive) | 6.85 µM (inactive) | 15.1 µM (inactive) | 15.3 µM (inactive) | 29.2 µM (inactive) | 22 µM (inactive) | 3.64 µM (inactive) |
| N#Cc1c(C#N)c(SSc2c(C#N)c(C#N)c(N)n2-c2ccc(F)cc2)n(-c2ccc(F)cc2)c1N | 16 µM (inactive) | 20.2 µM (inactive) | 2.77 µM (inactive) | 8.11 µM (inactive) | 2.25 µM (inactive) | 16.6 µM (inactive) | 3.01 µM (inactive) | 23.2 µM (inactive) | 8.17 µM (inactive) | 19.6 µM (inactive) | 18.9 µM (inactive) | 2.88 µM (inactive) | 16.9 µM (inactive) | 2.7 µM (inactive) | 17.8 µM (inactive) | 17.5 µM (inactive) | 17.4 µM (inactive) | 25.8 µM (inactive) | 8.11 µM (inactive) | 1.95 µM (inactive) |
| CC1(C)CC(C2=NCCO2)CC(C)(C)N1 | > 100 µM (inactive) | > 100 µM (inactive) | > 100 µM (inactive) | > 100 µM (inactive) |  | > 100 µM (inactive) | > 100 µM (inactive) |  | > 100 µM (inactive) | > 100 µM (inactive) | > 100 µM (inactive) | > 100 µM (inactive) | > 100 µM (inactive) | > 100 µM (inactive) | > 100 µM (inactive) | > 100 µM (inactive) | > 100 µM (inactive) | > 100 µM (inactive) | > 100 µM (inactive) | > 100 µM (inactive) |
| CCCCn1c(-c2ccc([N+](=O)[O-])cc2)cs/c1=N/N=C1\C(=O)Nc2ccc(Br)cc21 | 13.8 µM (inactive) | 10.4 µM (inactive) | 12.6 µM (inactive) | 14.1 µM (inactive) | 39.6 µM (inactive) | 3.78 µM (inactive) | 8 µM (inactive) | 14.6 µM (inactive) | 21.4 µM (inactive) | 15.7 µM (inactive) | 15.9 µM (inactive) | 22.6 µM (inactive) | 19.6 µM (inactive) | 7.11 µM (inactive) | 15.7 µM (inactive) | 19.5 µM (inactive) | 14.1 µM (inactive) | 43.2 µM (inactive) | 17.4 µM (inactive) | 13.6 µM (inactive) |
| ClC1=NN=C(c2c[nH]c3ccccc23)CC1NCc1ccccc1 (centres undefined) | > 100 µM (inactive) | > 100 µM (inactive) |  | > 100 µM (inactive) | > 100 µM (inactive) | > 100 µM (inactive) | > 100 µM (inactive) | > 100 µM (inactive) | > 100 µM (inactive) | > 100 µM (inactive) | > 100 µM (inactive) | > 100 µM (inactive) | > 100 µM (inactive) | > 100 µM (inactive) | > 100 µM (inactive) | > 100 µM (inactive) | > 100 µM (inactive) | > 100 µM (inactive) | > 100 µM (inactive) | > 100 µM (inactive) |
| Cc1ccc2c(c1C)CC1(Cc3c(ccc4c3CCC4)C1=O)C2=O (centres undefined) | > 100 µM (inactive) | > 100 µM (inactive) | > 100 µM (inactive) | 46.3 µM (inactive) | > 100 µM (inactive) | > 100 µM (inactive) | > 100 µM (inactive) | > 100 µM (inactive) | > 100 µM (inactive) | > 100 µM (inactive) | > 100 µM (inactive) | > 100 µM (inactive) | > 100 µM (inactive) | > 100 µM (inactive) |  | > 100 µM (inactive) | > 100 µM (inactive) | > 100 µM (inactive) | > 100 µM (inactive) | > 100 µM (inactive) |
| O=c1[nH]cnc2c1ncn2[C@H]1CO[C@@H](CO)[C@@H]1O | > 100 µM (inactive) | > 100 µM (inactive) | > 100 µM (inactive) | > 100 µM (inactive) | > 100 µM (inactive) | > 100 µM (inactive) | > 100 µM (inactive) | > 100 µM (inactive) | > 100 µM (inactive) | > 100 µM (inactive) |  | > 100 µM (inactive) | > 100 µM (inactive) | > 100 µM (inactive) | > 100 µM (inactive) | > 100 µM (inactive) | > 100 µM (inactive) | > 100 µM (inactive) | > 100 µM (inactive) | > 100 µM (inactive) |
| Cc1cc(C)c2c(n1)S(=O)(=O)N(CCCN1CCN(c3cccc(C(F)(F)F)c3)CC1)C(C(=O)c1ccc(Cl)cc1)=C2O | 4.67 µM (inactive) | 2.65 µM (inactive) | 3.06 µM (inactive) | 3.18 µM (inactive) | 3.69 µM (inactive) | 2.02 µM (inactive) | 4.34 µM (inactive) | 3.58 µM (inactive) | 1.11 µM (active) | 4.4 µM (inactive) | 2.74 µM (inactive) | 6.1 µM (inactive) | 4.74 µM (inactive) | 3.98 µM (inactive) | 5.81 µM (inactive) | 5.81 µM (inactive) | 2.22 µM (inactive) | 5.55 µM (inactive) | 4.52 µM (inactive) | 1.84 µM (inactive) |
| C[N+]1(CCCC[N+]2(C)CCCCCCC2)CCCCCCC1 | > 100 µM (inactive) | > 100 µM (inactive) | > 100 µM (inactive) | > 100 µM (inactive) | > 100 µM (inactive) | > 100 µM (inactive) | > 100 µM (inactive) | > 100 µM (inactive) | > 100 µM (inactive) | > 100 µM (inactive) | > 100 µM (inactive) | > 100 µM (inactive) | > 100 µM (inactive) | > 100 µM (inactive) | > 100 µM (inactive) |  | > 100 µM (inactive) | 0.227 µM (active) | > 100 µM (inactive) |  |
| O=S(=O)(N/C(=N\O)Nc1ccc(Cl)cc1)c1cc(S(=O)(=O)c2ccccc2)cs1 | 18 µM (inactive) | 13.7 µM (inactive) | 12.9 µM (inactive) | 13.8 µM (inactive) | 19.8 µM (inactive) | 15.2 µM (inactive) | 16.3 µM (inactive) | 22.2 µM (inactive) | 16.6 µM (inactive) | 20.3 µM (inactive) | 24 µM (inactive) | 15.5 µM (inactive) | 14.8 µM (inactive) | 11.6 µM (inactive) | 17.5 µM (inactive) |  | 9.08 µM (inactive) | 13.6 µM (inactive) | 13.8 µM (inactive) | 18.7 µM (inactive) |
